The text below walks through data of patent publication US20210046010A1, “TABLETS CONTAINING ARGININE AT HIGH CONCENTRATION” (KYOWA HAKKO BIO CO., LTD., priority 2015, published 2021).

A short description of data set [1]: Moisture content of powder by heating and drying method moisture analyzer. In kind it is physicochemical. As to conditions: heating and drying method moisture analyzer MX-50. As for the experimental part: (§1) 600 g of L-arginine was added to 5 L of water, and the mixture was mixed, and spray dried by a spray dryer [L-8i type spray dryer (manufactured by OHKAWARA KAKOHKI CO., LTD.)] set to the conditions of atomizer rotation number=35,000 rpm, inlet temperature=180° C. and outlet temperature=70° C. to give a powder. The moisture content of the aforementioned powder was measured by a heating and drying method moisture analyzer [heating and drying method moisture analyzer MX-50 (manufactured by A&D Company, Limited)] to find 1.96 mass % The moisture content was 2.3 mass % when measured by the Karl Fischer's method at the General Incorporated Foundations Japan Food Research Laboratories. Hereinafter this powder is indicated to as “SD arginine-A”.

Data set [2] in a line: Moisture content of powder by Karl Fischer's method. As to conditions: Japan Food Research Laboratories. Type of data set: physicochemical. As to the method: as §1

For the compound `N=C(N)NCCC[C@H](N)C(=O)O` [SD arginine-A, L-arginine], the moisture content is 1.96 mass % in data set [1] and 2.3 mass % in data set [2].
Turning to `N=C(N)NCCC[C@H](N)C(=O)O` [SD arginine-B, L-arginine], in data set [1], the moisture content stood at 1.81 mass %.
In the case of `N=C(N)NCCC[C@H](N)C(=O)O` [SD arginine-C, L-arginine], the moisture content is recorded as 3.80 mass % in data set [1] and 3.91 mass % in data set [2].
